Test results reported in patent US11117947B2, “Double-acylated GLP-1 derivatives” (Novo Nordisk A/S, priority 2011, dated 2021).
Where two headings read alike, the source gives them in different places. Numbered stars: 1 amine (or outer) side, 2 acyl side, 3 side chain; on linkers, the order of the positions; unused ones are H or OH. Side chains are listed from the residue outwards. Peptide text beside a SMILES is read from it. * marks the point of attachment. Decanoyl(10-(4-HOOC-PhO)) = O=C(O)c1ccc(OCCCCCCCCCC(=O)*)cc1; γGlu = O=C(O)[C@H](CCC(=O)[*:2])N[*:1]; AEEA = NCCOCCOCC(=O)O

Tests used:
[1] = Estimate of oral bioavailability: gut injection in rat (caprate), exposure in plasma; format: in vivo; conditions: injection in jejunum, 1000 uM in 55 mg/ml sodium caprate, plasma concentration (pM) at 30 min divided by dosing solution concentration (μM), mean n=4
Method: The GLP-1 derivatives were tested in a concentration of 1000 uM in a solution of 55 mg/ml sodium caprate.
Male Sprague Dawley rats with a body weight upon arrival of approximately 240 g were obtained from Taconic (Denmark) and assigned to the different treatments by simple randomisation, 4 rats per group.
The GLP-1 derivatives were administered in the jejunum either in the proximal part (10 cm distal for the duodenum) or in the mid-intestine (50 cm proximal for the cecum). A PE50-catheter, 10 cm long was inserted into the jejunum, forwarded at least 1.5 cm into the jejunum, and secured before dosing by ligature around the gut and the catheter with 3/0 suture distal to tip to prevent leak or catheter displacement. Catheter was placed without syringe and needle and 2 ml saline was administered into abdomen before closing the incision with wound clips.
100 μl of the respective GLP-1 derivative was injected into the jejunal lumen through the catheter with a 1 ml syringe. Subsequently, 200 μl of air was pushed into the jejunal lumen with another syringe to “flush” the catheter. This syringe was leaved connected to the catheter to prevent flow back into the catheter.
Blood samples (200 ul) were collected at desired intervals (usually at times 0, 10, 30, 60, 120 and 240 min) into EDTA tubes from the tail vein and centrifuged 5 minutes, 10000G, at 4° C. within 20 minutes. […] 12, p. 240-247. The donor beads were coated with streptavidin, while acceptor beads were conjugated with a monoclonal antibody recognising a mid-/C-terminal epitope of the peptide. Another monoclonal antibody, specific for the N-terminus, was biotinylated. The three reactants were combined with the analyte and formed a two-sited immuno-complex. Illumination of the complex released singlet oxygen atoms from the donor beads, which were channeled into the acceptor beads and triggered chemiluminescence which was measured in an Envision plate reader. The amount of light was proportional to the concentration of the compound.
After the blood sampling the rats were sacrificed under anaesthesia and the abdomen was opened to verify correct catheter placement.
The mean (n=4) plasma concentrations (pmol/l) were determined as a function of time.

human GLP-1 receptor = molecular target: T1, human GLP-1 receptor (Homo sapiens, UniProt P43220); assay: GLP-1 receptor binding: displacement of 125I-GLP-1 (SPA) at low and high albumin
T1 construct: expressed in transfected cells; membranes
Method: The purpose of this experiment is to investigate the binding to the GLP-1 receptor of the GLP-1 derivatives, and how the binding is potentially influenced by the presence of albumin. This is done in an in vitro experiment as described below.
In order to test the binding of the derivatives to albumin, the assay was performed with a low concentration of albumin (0.001%—corresponding to the residual amount thereof in the tracer), as well as with a high concentration of albumin (2.0% added). A shift in the binding affinity, IC50, is an indication that the peptide in question binds to albumin, and thereby a prediction of a potential protracted pharmacokinetic profile of the peptide in question in animal models.
Species (in vitro): Hamster
Biological End Point: Receptor Binding
A stable transfected cell line and a high expressing clone were selected for screening. The cells were grown at 5% CO2 in DMEM, 10% FCS, 1% Pen/Strep (Penicillin/Streptomycin) and 1.0 mg/ml of the selection marker G418.
The cells (approx. 80% confluence) were washed twice in PBS and harvested with Versene (aqueous solution of the tetrasodium salt of ethylenediaminetetraacetic acid), following which they were separated by centrifugation at 1000 rpm for 5 min. The cells/cell pellet must be kept on ice to the extent possible in the subsequent steps. The cell pellet was homogenised with Ultrathurrax for 20-30 seconds in a suitable amount of Buffer 1 (depending on the amount of cells, but e.g. 10 ml). The homogenate was centrifuged at 20000 rpm for 15 minutes. The pellet was resuspended (homogenised) in 10 ml Buffer 2 and re-centrifuged. This step was repeated once more. The resulting pellet was resuspended in Buffer 2, and the protein concentration was determined. The membranes were stored at minus 80° C.
Buffer 1: 20 mM Na-HEPES+10 mM EDTA, pH 7.4
Buffer 2: 20 mM Na-HEPES+0.1 mM EDTA, pH 7.4
Test compounds, membranes, SPA-particles and [^125I]-GLP-1(7-36)NH2 were diluted in assay buffer. 50 ul (micro liter) HSA (“high albumin” experiment containing 2% HSA), or buffer (“low albumin” experiment containing 0.001% HSA), was added to Optiplate, and 25 ul of test compounds were added. 5-10 ug membrane protein/sample was added (50 ul) corresponding to 0.1-0.2 mg protein/ml (to be preferably optimised for each membrane preparation). SPA-particles (Wheatgerm agglutinin SPA beads, Perkin Elmer, #RPNQ0001) were added in an amount of 0.5 mg/well (50 ul). The incubation was started with [^125I]-GLP-1]-(7-36)NH2 (final concentration 0.06 nM corresponding to 49.880 DPM, 25 ul). The plates were sealed with PlateSealer and incubated for 120 minutes at 30° C. while shaking. The plates were centrifuged (1500 rpm, 10 min) and counted in Topcounter.

[2] = low albumin, 0.001% HSA, read-out: IC50/nM (low HSA)

T1 sequence (P43220 24-463): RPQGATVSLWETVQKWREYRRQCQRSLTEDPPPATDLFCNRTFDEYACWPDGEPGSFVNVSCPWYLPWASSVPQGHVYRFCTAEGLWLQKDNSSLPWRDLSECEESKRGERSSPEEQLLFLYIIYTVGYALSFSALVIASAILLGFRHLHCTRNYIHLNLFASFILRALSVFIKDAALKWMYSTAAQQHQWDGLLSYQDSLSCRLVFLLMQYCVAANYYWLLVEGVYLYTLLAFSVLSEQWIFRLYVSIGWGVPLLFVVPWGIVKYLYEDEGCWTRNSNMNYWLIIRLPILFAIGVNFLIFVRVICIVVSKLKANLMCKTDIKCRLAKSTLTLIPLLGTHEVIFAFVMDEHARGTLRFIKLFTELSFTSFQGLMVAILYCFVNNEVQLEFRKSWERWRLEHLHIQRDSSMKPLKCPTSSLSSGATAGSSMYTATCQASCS

| SMILES | Dose-corrected exposure at 30 min [1] | IC50 (human GLP-1 receptor; [2]) [nM] | IC50 (human GLP-1 receptor; high albumin, 2.0% HSA, read-out: IC50/nM (high HSA)) [nM] |
| --- | --- | --- | --- |
| CC[C@H](C)[C@H](NC(=O)[C@H](Cc1ccccc1)NC(=O)[C@H](CCCCNC(=O)COCCOCCNC(=O)COCCOCCNC(=O)CC[C@H](NC(=O)CCCCCCCCCOc1ccc(C(=O)O)cc1)C(=O)O)NC(=O)[C@H](CCCNC(=N)N)NC(=O)[C@@H](NC(=O)[C@H](C)NC(=O)[C@H](CCC(N)=O)NC(=O)CNC(=O)[C@H](CCC(=O)O)NC(=O)[C@H](CC(C)C)NC(=O)[C@H](Cc1ccc(O)cc1)NC(=O)[C@H](CO)NC(=O)[C@H](CO)NC(=O)[C@@H](NC(=O)[C@H](CC(=O)O)NC(=O)[C@H](CO)NC(=O)[C@@H](NC(=O)[C@H](Cc1ccccc1)NC(=O)[C@@H](NC(=O)CNC(=O)[C@H](CCC(=O)O)NC(=O)[C@H](C)NC(=O)[C@@H](N)Cc1c[nH]cn1)[C@@H](C)O)[C@@H](C)O)C(C)C)C(C)C)C(=O)N[C@@H](CCC(=O)O)C(=O)N[C@@H](Cc1c[nH]c2ccccc12)C(=O)N[C@@H](CC(C)C)C(=O)N[C@H](C(=O)N[C@@H](CCCNC(=N)N)C(=O)NCC(=O)N[C@@H](CCCCNC(=O)COCCOCCNC(=O)COCCOCCNC(=O)CC[C@H](NC(=O)CCCCCCCCCOc1ccc(C(=O)O)cc1)C(=O)O)C(=O)NCC(=O)N[C@@H](CCC(N)=O)C(=O)O)C(C)C [Example 12, N^α(N^ε27-[2-[2-[2-[[2-[2-[2-[[(4S)-4-carboxy-4-[10-(4-carboxyphenoxy)decanoylamino]butanoyl]amino]ethoxy]ethoxy]acetyl]amino]ethoxy]ethoxy]acetyl], N^ε36-[2-[2-[2-[[2-[2-[2-[[(4S)-4-carboxy-4-[10-(4-carboxyphenoxy)decanoylamino]butanoyl]amino]ethoxy]ethoxy]acetyl]amino]ethoxy]ethoxy]acetyl]-[Val^25,Arg^26,Lys^27,Glu^30,Arg^34,Lys^36]-GLP-1-(7-37)-peptidyl)-Gln] (H-HAEGTFTSDVSSYLEGQAVRK([AEEA-AEEA-γGlu-Decanoyl(10-(4-HOOC-PhO))])FIEWLVRGK([AEEA-AEEA-γGlu-Decanoyl(10-(4-HOOC-PhO))])GQ-OH; N-terminus and C-terminus assumed) | 68 | – | – |
| CC[C@H](C)[C@H](NC(=O)[C@H](Cc1ccccc1)NC(=O)[C@H](CCCCNC(=O)COCCOCCNC(=O)COCCOCCNC(=O)CC[C@H](NC(=O)CCCCCCCCCOc1ccc(C(=O)O)cc1)C(=O)O)NC(=O)[C@H](CCCNC(=N)N)NC(=O)[C@H](C)NC(=O)[C@H](C)NC(=O)[C@H](CCC(N)=O)NC(=O)[C@H](CCC(=O)O)NC(=O)[C@H](CCC(=O)O)NC(=O)[C@H](CC(C)C)NC(=O)[C@H](Cc1ccc(O)cc1)NC(=O)[C@H](CO)NC(=O)[C@H](CO)NC(=O)[C@@H](NC(=O)[C@H](CC(=O)O)NC(=O)[C@H](CO)NC(=O)[C@@H](NC(=O)[C@H](Cc1ccccc1)NC(=O)[C@@H](NC(=O)CNC(=O)[C@H](CCC(=O)O)NC(=O)[C@H](C)NC(=O)[C@@H](N)Cc1c[nH]cn1)[C@@H](C)O)[C@@H](C)O)C(C)C)C(=O)N[C@@H](C)C(=O)N[C@@H](Cc1c[nH]c2ccccc12)C(=O)N[C@@H](CC(C)C)C(=O)N[C@H](C(=O)N[C@@H](CCCNC(=N)N)C(=O)NCC(=O)N[C@@H](CCCNC(=N)N)C(=O)N[C@@H](CCCCNC(=O)COCCOCCNC(=O)COCCOCCNC(=O)CC[C@H](NC(=O)CCCCCCCCCOc1ccc(C(=O)O)cc1)C(=O)O)C(=O)O)C(C)C [Example 1, N^ε27-[2-[2-[2-[[2-[2-[2-[[(4S)-4-carboxy-4-[10-(4-carboxyphenoxy)decanoylamino]butanoyl]amino]ethoxy]ethoxy]acetyl]amino]ethoxy]ethoxy]acetyl], N^ε37-[2-[2-[2-[[2-[2-[2-[[(4S)-4-carboxy-4-[10-(4-carboxyphenoxy)decanoylamino]butanoyl]amino]ethoxy]ethoxy]acetyl]amino]ethoxy]ethoxy]acetyl]-[Glu^22,Arg^26,Lys^27,Arg^34,Lys^37]-GLP-1-(7-37)-peptide] (H-HAEGTFTSDVSSYLEEQAARK([AEEA-AEEA-γGlu-Decanoyl(10-(4-HOOC-PhO))])FIAWLVRGRK([AEEA-AEEA-γGlu-Decanoyl(10-(4-HOOC-PhO))])-OH; N-terminus and C-terminus assumed) | – | 0.19 | – |
| CC[C@H](C)[C@H](NC(=O)[C@H](Cc1ccccc1)NC(=O)[C@H](CCCCNC(=O)COCCOCCNC(=O)COCCOCCNC(=O)CC[C@H](NC(=O)CCCCCCCCCOc1ccc(C(=O)O)cc1)C(=O)O)NC(=O)[C@H](CCCNC(=N)N)NC(=O)[C@@H](NC(=O)[C@H](CCCCNC(=O)COCCOCCNC(=O)COCCOCCNC(=O)CC[C@H](NC(=O)CCCCCCCCCOc1ccc(C(=O)O)cc1)C(=O)O)NC(=O)[C@H](CCC(N)=O)NC(=O)[C@H](CCC(=O)O)NC(=O)[C@H](CCC(=O)O)NC(=O)[C@H](CC(C)C)NC(=O)[C@H](Cc1ccc(O)cc1)NC(=O)[C@H](CO)NC(=O)[C@H](CO)NC(=O)[C@@H](NC(=O)[C@H](CC(=O)O)NC(=O)[C@H](CO)NC(=O)[C@@H](NC(=O)[C@H](Cc1ccccc1)NC(=O)[C@@H](NC(=O)CNC(=O)[C@H](CCC(=O)O)NC(=O)[C@H](C)NC(=O)[C@@H](N)Cc1c[nH]cn1)[C@@H](C)O)[C@@H](C)O)C(C)C)C(C)C)C(=O)N[C@@H](C)C(=O)N[C@@H](Cc1c[nH]c2ccccc12)C(=O)N[C@@H](CC(C)C)C(=O)N[C@H](C(=O)N[C@@H](CCCNC(=N)N)C(=O)NCC(=O)N[C@@H](CCCNC(=N)N)C(=O)NCC(=O)O)C(C)C [Example 28, N^ε24-[2-[2-[2-[[2-[2-[2-[[(4S)-4-carboxy-4-[10-(4-carboxyphenoxy)decanoylamino]butanoyl]amino]ethoxy]ethoxy]acetyl]amino]ethoxy]ethoxy]acetyl], N^ε27-[2-[2-[2-[[2-[2-[2-[[(4S)-4-carboxy-4-[10-(4-carboxyphenoxy)decanoylamino]butanoyl]amino]ethoxy]ethoxy]acetyl]amino]ethoxy]ethoxy]acetyl]-[Glu^22,Lys^24,Val^25,Arg^26,Lys^27,Arg^34]-GLP-1-(7-37)-peptide] (H-HAEGTFTSDVSSYLEEQK([AEEA-AEEA-γGlu-Decanoyl(10-(4-HOOC-PhO))])VRK([AEEA-AEEA-γGlu-Decanoyl(10-(4-HOOC-PhO))])FIAWLVRGRG-OH; N-terminus and C-terminus assumed) | – | 0.2 | 29 |
